Values quoted from earlier work as cited in patent US20160287599A1, “SUBSTITUTED 1,2,4-TRIAZINE-3,5-DIONES AND THE USE THEREOF AS CHYMASE INHIBITORS” (BAYER PHARMA AKTIENGESELLSCHAFT, priority 2013, published 2016).

Tested on: chymase
Conditions: hamsters, myocardial infarction model

## CCOc1ccccc1CC1C(=O)N(C(=O)NC(c2ccc(C)cc2)c2ccc(C)cc2)C1Oc1ccc(C(=O)O)cc1 (stereo not drawn) [BCEAB]
  chymase activity: reduced
  haemodynamics: improved
  mortality: reduced
